# Legend:
# [1] = target: T1, hKCNQ5 (Homo sapiens, UniProt Q9NR82); assay: two-electrode voltage-clamp of KCNQ5 currents in Xenopus oocytes; format: cell-based
# T1 construct: A composite full-length cDNA construct was assembled from two overlapping cDNA clones and subcloned into the Xenopus expression vector pSGEM; expressed in transfected cells; host or cells: Xenopus laevis oocytes injected with in vitro transcribed capped cRNA (vector pSGEM)
# Source text: A, representative current traces from a KCNQ5 injected oocyte subjected to a pulse protocol that stepped the membrane potential from holding potential (−100 mV) to test pulses from −100 to +50 mV and back to holding potential. B, I-V relationships for KCNQ5 expressing oocytes (n=12) recorded using the protocol in A. C, tail current reversal potential of KCNQ 5 currents as a function of extracellular K^+ concentration. The dashed line is drawn according to the Nernst equation for a perfectly selective K^+ channel (n=5). D, effects of TEA, clofilium, quinidine, and chromanol 293 B on KCNQ 5 current. Superimposed currents were obtained during a 3 s depolarizing step from −100 mV to 0 mV, during the same experiment. […]
# Xenopus laevis oocytes were obtained from tricaine anaesthetized animals. […] Macroscopic currents were recorded 2-4 days after injection. […]
# The possible function of KCNQ5 as a potassium channel was addressed by electrophysiological analysis of Xenopus oocytes injected with KCNQ5 cRNA transcribed in vitro. Two to four days after injection novel currents were detected that were not observed in water-injected control oocytes. […] The two components of deactivation were determined at a repolarizing voltage of −100 mV following a 3s depolarizing step to +40 mV. […]
# [2] = target: KCNQ3 (Rattus norvegicus, UniProt O88944); settings: as reported; cited from earlier work
# [3] = target: KCNQ2 (Homo sapiens, UniProt O43526); settings: cited from earlier work
# KCNQ2, sequence (O43526 whole entry): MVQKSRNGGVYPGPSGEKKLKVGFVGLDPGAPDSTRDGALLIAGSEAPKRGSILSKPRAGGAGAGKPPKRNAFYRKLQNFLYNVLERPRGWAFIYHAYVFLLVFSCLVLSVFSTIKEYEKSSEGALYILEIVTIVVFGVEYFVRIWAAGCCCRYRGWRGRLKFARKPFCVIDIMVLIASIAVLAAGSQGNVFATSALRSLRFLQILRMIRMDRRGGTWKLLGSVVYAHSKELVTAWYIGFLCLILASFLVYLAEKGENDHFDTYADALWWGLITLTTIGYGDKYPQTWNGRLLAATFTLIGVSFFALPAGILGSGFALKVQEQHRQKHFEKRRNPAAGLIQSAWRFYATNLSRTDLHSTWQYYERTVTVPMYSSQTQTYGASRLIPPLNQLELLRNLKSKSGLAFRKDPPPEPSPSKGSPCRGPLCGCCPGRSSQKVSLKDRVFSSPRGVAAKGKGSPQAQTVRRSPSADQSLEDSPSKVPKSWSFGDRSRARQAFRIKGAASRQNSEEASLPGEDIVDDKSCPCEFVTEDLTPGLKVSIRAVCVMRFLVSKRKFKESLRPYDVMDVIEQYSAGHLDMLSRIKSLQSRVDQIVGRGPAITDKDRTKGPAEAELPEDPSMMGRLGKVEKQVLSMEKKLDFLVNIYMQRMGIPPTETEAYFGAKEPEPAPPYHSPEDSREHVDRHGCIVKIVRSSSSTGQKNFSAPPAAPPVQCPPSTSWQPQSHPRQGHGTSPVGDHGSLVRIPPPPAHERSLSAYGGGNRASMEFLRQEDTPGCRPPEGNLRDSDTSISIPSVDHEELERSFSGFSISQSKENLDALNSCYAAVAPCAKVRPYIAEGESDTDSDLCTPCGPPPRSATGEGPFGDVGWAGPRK
# T1 sequence (Q9NR82 whole entry): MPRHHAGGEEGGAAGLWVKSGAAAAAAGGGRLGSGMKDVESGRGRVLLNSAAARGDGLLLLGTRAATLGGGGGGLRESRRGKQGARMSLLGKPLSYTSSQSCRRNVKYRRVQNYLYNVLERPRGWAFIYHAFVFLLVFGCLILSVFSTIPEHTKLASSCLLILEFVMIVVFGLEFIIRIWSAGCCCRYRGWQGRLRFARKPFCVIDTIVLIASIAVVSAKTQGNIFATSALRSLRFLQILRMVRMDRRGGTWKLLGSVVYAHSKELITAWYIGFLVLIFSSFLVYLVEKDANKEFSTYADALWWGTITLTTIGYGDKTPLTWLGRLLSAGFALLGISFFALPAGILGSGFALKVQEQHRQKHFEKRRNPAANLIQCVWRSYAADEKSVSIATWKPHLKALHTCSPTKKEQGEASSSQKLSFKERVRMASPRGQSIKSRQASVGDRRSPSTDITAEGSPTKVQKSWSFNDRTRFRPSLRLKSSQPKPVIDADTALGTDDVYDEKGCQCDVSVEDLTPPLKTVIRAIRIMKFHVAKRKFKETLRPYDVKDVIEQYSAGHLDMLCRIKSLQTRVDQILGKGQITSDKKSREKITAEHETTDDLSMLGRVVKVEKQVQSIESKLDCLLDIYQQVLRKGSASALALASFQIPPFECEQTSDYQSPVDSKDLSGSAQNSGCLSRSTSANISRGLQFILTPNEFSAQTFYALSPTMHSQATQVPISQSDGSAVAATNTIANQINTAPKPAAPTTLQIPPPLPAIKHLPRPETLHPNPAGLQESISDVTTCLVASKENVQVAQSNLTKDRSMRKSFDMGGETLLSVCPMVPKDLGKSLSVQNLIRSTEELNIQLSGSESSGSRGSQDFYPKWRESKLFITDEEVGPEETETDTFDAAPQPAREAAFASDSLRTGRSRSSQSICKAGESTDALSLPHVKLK
# KCNQ3, sequence (O88944 whole entry): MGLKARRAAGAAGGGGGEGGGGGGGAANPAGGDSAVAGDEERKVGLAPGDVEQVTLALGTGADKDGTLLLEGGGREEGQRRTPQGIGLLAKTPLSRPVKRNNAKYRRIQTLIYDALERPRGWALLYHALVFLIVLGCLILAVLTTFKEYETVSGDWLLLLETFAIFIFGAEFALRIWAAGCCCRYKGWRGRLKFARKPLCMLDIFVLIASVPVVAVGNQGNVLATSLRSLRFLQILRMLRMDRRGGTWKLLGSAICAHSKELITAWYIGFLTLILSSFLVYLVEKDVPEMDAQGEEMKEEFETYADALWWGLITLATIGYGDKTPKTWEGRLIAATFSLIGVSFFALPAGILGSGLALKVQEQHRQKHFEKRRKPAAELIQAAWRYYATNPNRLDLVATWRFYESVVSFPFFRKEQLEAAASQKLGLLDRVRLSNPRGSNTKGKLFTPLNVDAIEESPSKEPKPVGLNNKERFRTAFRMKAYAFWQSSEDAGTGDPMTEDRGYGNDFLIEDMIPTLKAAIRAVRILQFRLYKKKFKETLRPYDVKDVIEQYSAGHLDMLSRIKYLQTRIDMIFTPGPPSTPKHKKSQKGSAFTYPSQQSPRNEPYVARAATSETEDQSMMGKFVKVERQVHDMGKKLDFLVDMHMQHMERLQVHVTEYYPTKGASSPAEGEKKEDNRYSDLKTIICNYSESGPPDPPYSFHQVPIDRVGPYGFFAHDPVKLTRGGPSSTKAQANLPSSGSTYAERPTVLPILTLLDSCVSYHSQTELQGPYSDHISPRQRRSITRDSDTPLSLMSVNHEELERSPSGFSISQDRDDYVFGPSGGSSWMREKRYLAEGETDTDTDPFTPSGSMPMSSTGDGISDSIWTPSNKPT
smiles,measurement,setting,value
"CC[N+](CC)(CC)CC [TEA, tetraethylammonium]",sensitivity of KCNQ5 currents to the blocker,[1],insensitive
same,sensitivity of KCNQ3 to the blocker,[2],insensitive
same,sensitivity of KCNQ2 to the blocker,[3],high sensitivity
C=C[C@H]1C[N@@]2CC[C@H]1C[C@@H]2[C@@H](O)c1ccnc2ccc(OC)cc12 [quinidine],block of KCNQ5 currents,"[1]; 300 μM, 3 s step from −100 mV to 0 mV",50%
CCCCCCC[N+](CC)(CC)CCCCc1ccc(Cl)cc1 [Clofilium],inhibition of KCNQ2,[3]; 10 μM,little inhibition

# — US6617131B2, “Nucleic acid molecule encoding the potassium channel protein, KCNQ5” (Aventis Pharma Deutschland GmbH, priority 2000, dated 2003)
